Test results: patent publication US20050209106A1, “Substituted 4-(4-trifluoromethylpyrazolyl)pyrimidines” (Bayer CropScience GmbH, priority 2004, published 2005)

Experiments:
Assay type in all cases: in vivo
Amaranthus retroflexus [1] = test: Herbicidal pre-emergence action against harmful plants; conditions: dosage of 1000 g and less than 1000 g of active substance per hectare, visual scoring after 3 to 4 weeks, greenhouse
Source text: (§1) 1. Herbicidal Pre-Emergence Action Against Harmful Plants
(§2) Seeds of mono- and dicotyledonous harmful plants are put in sandy loam in cardboard pots and covered with soil. The compounds according to the invention, which are formulated in the form of wettable powders or emulsion concentrates, are then applied to the surface of the soil cover as an aqueous suspension or emulsion at an application rate of 600 to 800 l/ha (converted) in various dosages. After the treatment, the pots are placed in a greenhouse and kept under good growth conditions for the weeds. Visual scoring of the plant damage or emergence damage is carried out after the test plants have emerged after a test period of 3 to 4 weeks in comparison with untreated controls.

Setaria viridis = test: as above; conditions: dosage of 1000 g and less than 1000 g of active substance per hectare, visual scoring after 3 to 4 weeks, greenhouse
Source text: as §1, §2

Stellaria media [2] = test: as above; conditions: dosage of 1000 g and less than 1000 g of active substance per hectare, visual scoring after 3 to 4 weeks, greenhouse
Source text: as §1, §2

Lolium multiflorum = test: as above; conditions: dosage of 1000 g and less than 1000 g of active substance per hectare, visual scoring after 3 to 4 weeks, greenhouse
Source text: as §1, §2

Sinapis arvensis = test: Herbicidal post-emergence action against harmful plants; conditions: three-leaf stage, dosage of 1000 g and less than 1000 g of active substance per hectare, scored after 3 to 4 weeks, greenhouse
Experimental: (§3) 2. Herbicidal Post-Emergence Action Against Harmful Plants
(§4) Seeds of mono- and dicotyledonous harmful plants are put into sandy loam in cardboard pots, covered with soil and grown in the greenhouse under good growth conditions. Two to three weeks after sowing, the test plants are treated at the three-leaf stage. The compounds according to the invention, which are formulated as wettable powders or as emulsion concentrates, are sprayed onto the surface of the green plant parts in various dosages at a water application rate of 600 to 800 l/ha (converted). After the test plants have been left to stand in the greenhouse for 3 to 4 weeks under optimum growth conditions, the action of the compounds is scored.

Avena fatua = test: as above; conditions: three-leaf stage, dosage of 1000 g and less than 1000 g of active substance per hectare, scored after 3 to 4 weeks, greenhouse
Experimental: as §3, §4

Amaranthus retroflexus [3] = test: as above; conditions: three-leaf stage, dosage of 1000 g and less than 1000 g of active substance per hectare, scored after 3 to 4 weeks, greenhouse
Experimental: as §3, §4

Stellaria media [4] = test: as above; conditions: three-leaf stage, dosage of 1000 g and less than 1000 g of active substance per hectare, scored after 3 to 4 weeks, greenhouse
Experimental: as §3, §4

Cc1cc(-n2cc(C(F)(F)F)cn2)nc(Oc2cc(C(F)(F)F)nn2C)n1 [9.13]
100%: action against Amaranthus retroflexus (Amaranthus retroflexus [1]) | action against Setaria viridis (Setaria viridis) | action against Stellaria media (Stellaria media [2])

Cc1cc(-n2cc(C(F)(F)F)cn2)nc(Oc2csc(C(F)(F)F)c2)n1 [7.13]
100%: action against Amaranthus retroflexus (Amaranthus retroflexus [1]) | action against Setaria viridis (Setaria viridis) | action against Stellaria media (Stellaria media [2])

CCc1cc(-n2cc(C(F)(F)F)c(C)n2)nc(Oc2ccnc(C(F)(F)F)c2)n1 [1.26]
100%: action against Lolium multiflorum (Lolium multiflorum) | action against Amaranthus retroflexus (Amaranthus retroflexus [1]) | action against Setaria viridis (Setaria viridis) | action against Stellaria media (Stellaria media [2])

CCc1cc(-n2cc(C(F)(F)F)cn2)nc(Oc2cc(C(F)(F)F)nn2C)n1 [9.25]
100%: action against Sinapis arvensis (Sinapis arvensis) | action against Avena fatua (Avena fatua) | action against Amaranthus retroflexus (Amaranthus retroflexus [3]) | action against Stellaria media (Stellaria media [4])

Cc1cc(-n2cc(C(F)(F)F)c(C)n2)nc(Oc2ccnc(C(F)(F)F)c2)n1 [1.14]
100%: action against Lolium multiflorum (Lolium multiflorum) | action against Amaranthus retroflexus (Amaranthus retroflexus [1]) | action against Setaria viridis (Setaria viridis) | action against Stellaria media (Stellaria media [2])

Cc1cc(-n2cc(C(F)(F)F)c(C)n2)nc(Oc2cc(C(F)(F)F)nn2C)n1 [9.14]
100%: action against Amaranthus retroflexus (Amaranthus retroflexus [1]) | action against Setaria viridis (Setaria viridis) | action against Stellaria media (Stellaria media [2])

COc1cc(-n2cc(C(F)(F)F)cn2)nc(Oc2ccnc(OC(F)F)c2)n1 [1.46]
100%: action against Sinapis arvensis (Sinapis arvensis) | action against Avena fatua (Avena fatua) | action against Amaranthus retroflexus (Amaranthus retroflexus [3]) | action against Stellaria media (Stellaria media [4]) | action against Lolium multiflorum (Lolium multiflorum) | action against Amaranthus retroflexus (Amaranthus retroflexus [1]) | action against Setaria viridis (Setaria viridis) | action against Stellaria media (Stellaria media [2])

COc1cc(-n2ncc(C(F)(F)F)c2C)nc(Oc2ccnc(C(F)(F)F)c2)n1 [1.39]
100%: action against Lolium multiflorum (Lolium multiflorum) | action against Amaranthus retroflexus (Amaranthus retroflexus [1]) | action against Setaria viridis (Setaria viridis) | action against Stellaria media (Stellaria media [2])
